Experimental data published in ChEMBL document CHEMBL3885861, “Open TG-GATES”.

Organism: Rattus norvegicus
Test: Open TG-GATES - Regimen: Daily Repeat
Assay type: toxicity, organism-based, Sprague-Dawley
Set-up: regimen Daily Repeat, gender Male, age 6 weeks
Conditions: in vivo, po, 150 mg/kg, route gavage, dose level Middle; for APTT / Bas / Eos / Fbg / Hb / Ht / Lym / MCH / MCHC / MCV / Mono / Neu / PT / Plat / RBC / Ret / WBC: tissue Blood; for KIDNEY_L / KIDNEY_R / KIDNEY_TOTAL: tissue Kidney; for LIVER: tissue Liver; for A/G / ALP / ALT / AST / BUN / CRE / Ca / Cl / DBIL / GLC / IP / K / LDH / Na / PL / RALB / TBIL / TC / TG / TP / gamma-GTP: tissue Plasma

Work on `CN1C(=O)OC(C)(C)C1=O` [TRIMETHADIONE] yielded a TERMINAL_BW (72 h, time 3 day) of 237.3 g, an APTT (72 h, time 3 day) of 16.6 s and a Bas (72 h, time 3 day) of 0%. It also gave an Eos (72 h, time 3 day) of 1.2%, a Fbg (72 h, time 3 day) of 277.6 mg/dL and a Hb (72 h, time 3 day) of 13.9 g/dL. It also gave a Ht (72 h, time 3 day) of 41.2%, a Lym (72 h, time 3 day) of 73.4% and an MCH (72 h, time 3 day) of 22 pg. The MCHC (72 h, time 3 day) was 33.7%, the MCV (72 h, time 3 day) was 65.2 fL and the Mono (72 h, time 3 day) was 2.8%. The Neu (72 h, time 3 day) was 22.6%, the PT (72 h, time 3 day) was 13 s and the Plat (72 h, time 3 day) was 127.9 x10_4/uL. It also gave an RBC (72 h, time 3 day) of 632 x10_4/ul, a Ret (72 h, time 3 day) of 6.9% and a WBC (72 h, time 3 day) of 82.5 x10_2/uL. The KIDNEY_L (72 h, time 3 day) was 1 g, the KIDNEY_R (72 h, time 3 day) was 0.9 g and the KIDNEY_TOTAL (72 h, time 3 day) was 1.9 g. It also gave an LIVER (72 h, time 3 day) of 11.2 g, an A/G (72 h, time 3 day) of 0.8 and an ALP (72 h, time 3 day) of 1577 IU/L. The ALT (72 h, time 3 day) was 42.4 IU/L, the AST (72 h, time 3 day) was 78.2 IU/L and the BUN (72 h, time 3 day) was 17.2 mg/dL. For the same compound, the CRE (72 h, time 3 day) was 0.2 mg/dL, the Ca (72 h, time 3 day) was 11.2 mg/dL and the Cl (72 h, time 3 day) was 105 meq/L. For the same compound, the DBIL (72 h, time 3 day) was 0.004 mg/dL, the GLC (72 h, time 3 day) was 180.6 mg/dL and the IP (72 h, time 3 day) was 6.9 mg/dL. The K (72 h, time 3 day) was 4.4 meq/L, the LDH (72 h, time 3 day) was 85.6 IU/L and the Na (72 h, time 3 day) was 142.2 meq/L. It also gave a PL (72 h, time 3 day) of 172.8 mg/dL, an RALB (72 h, time 3 day) of 2.6 g/dL and a TBIL (72 h, time 3 day) of 0.042 mg/dL. It also gave a TC (72 h, time 3 day) of 91.4 mg/dL, a TG (72 h, time 3 day) of 115.6 mg/dL and a TP (72 h, time 3 day) of 5.7 g/dL. It also gave a gamma-GTP (72 h, time 3 day) of 1 IU/L, a TERMINAL_BW ([…], time 7 day) of 275.1 g and a TERMINAL_BW ([…], time 14 day) of 335.8 g. For the same compound, the TERMINAL_BW ([…], time 28 day) was 410.9 g, the APTT ([…], time 7 day) was 22.2 s and the Bas ([…], time 7 day) was 0%. It also gave an Eos ([…], time 7 day) of 1%, a Fbg ([…], time 7 day) of 283.8 mg/dL and a Hb ([…], time 7 day) of 13.8 g/dL. The Ht ([…], time 7 day) was 40.4%, the Lym ([…], time 7 day) was 75% and the MCH ([…], time 7 day) was 21.5 pg. For the same compound, the MCHC ([…], time 7 day) was 34.1%, the MCV ([…], time 7 day) was 62.9 fL and the Mono ([…], time 7 day) was 2.6%. For the same compound, the Neu ([…], time 7 day) was 21.2%, the PT ([…], time 7 day) was 13.9 s and the Plat ([…], time 7 day) was 129.5 x10_4/uL. It also gave an RBC ([…], time 7 day) of 642.6 x10_4/ul, a Ret ([…], time 7 day) of 5.6% and a WBC ([…], time 7 day) of 92.5 x10_2/uL. It also gave an APTT ([…], time 14 day) of 25.9 s, a Bas ([…], time 14 day) of 0.2% and an Eos ([…], time 14 day) of 1%. For the same compound, the Fbg ([…], time 14 day) was 268.4 mg/dL, the Hb ([…], time 14 day) was 14.4 g/dL and the Ht ([…], time 14 day) was 41.6%. The Lym ([…], time 14 day) was 71.6%, the MCH ([…], time 14 day) was 20.8 pg and the MCHC ([…], time 14 day) was 34.6%. The MCV ([…], time 14 day) was 60.2 fL, the Mono ([…], time 14 day) was 2.2% and the Neu ([…], time 14 day) was 24.6%. It also gave a PT ([…], time 14 day) of 13.6 s, a Plat ([…], time 14 day) of 123.5 x10_4/uL and an RBC ([…], time 14 day) of 691.2 x10_4/ul. It also gave a Ret ([…], time 14 day) of 4.5%, a WBC ([…], time 14 day) of 132.8 x10_2/uL and an APTT ([…], time 28 day) of 21.9 s. For the same compound, the Bas ([…], time 28 day) was 0%, the Eos ([…], time 28 day) was 1.2% and the Fbg ([…], time 28 day) was 270.8 mg/dL. The Hb ([…], time 28 day) was 15.8 g/dL, the Ht ([…], time 28 day) was 45% and the Lym ([…], time 28 day) was 74.8%. For the same compound, the MCH ([…], time 28 day) was 19.6 pg, the MCHC ([…], time 28 day) was 35% and the MCV ([…], time 28 day) was 56.2 fL. For the same compound, the Mono ([…], time 28 day) was 2%, the Neu ([…], time 28 day) was 21.8% and the PT ([…], time 28 day) was 14.3 s. It also gave a Plat ([…], time 28 day) of 113.7 x10_4/uL, an RBC ([…], time 28 day) of 800.2 x10_4/ul and a Ret ([…], time 28 day) of 2%. The WBC ([…], time 28 day) was 103.2 x10_2/uL, the KIDNEY_L ([…], time 7 day) was 1.3 g and the KIDNEY_R ([…], time 7 day) was 1.2 g. For the same compound, the KIDNEY_TOTAL ([…], time 7 day) was 2.5 g, the KIDNEY_L ([…], time 14 day) was 1.4 g and the KIDNEY_R ([…], time 14 day) was 1.4 g. The KIDNEY_TOTAL ([…], time 14 day) was 2.8 g, the KIDNEY_L ([…], time 28 day) was 1.6 g and the KIDNEY_R ([…], time 28 day) was 1.7 g. The KIDNEY_TOTAL ([…], time 28 day) was 3.3 g, the LIVER ([…], time 7 day) was 13 g and the LIVER ([…], time 14 day) was 15.2 g. The LIVER ([…], time 28 day) was 16.5 g, the A/G ([…], time 7 day) was 0.9 and the ALP ([…], time 7 day) was 1744.2 IU/L. It also gave an ALT ([…], time 7 day) of 51.6 IU/L, an AST ([…], time 7 day) of 85.6 IU/L and a BUN ([…], time 7 day) of 15.8 mg/dL. For the same compound, the CRE ([…], time 7 day) was 0.2 mg/dL, the Ca ([…], time 7 day) was 10.8 mg/dL and the Cl ([…], time 7 day) was 103.4 meq/L. For the same compound, the DBIL ([…], time 7 day) was 0.01 mg/dL, the GLC ([…], time 7 day) was 192.6 mg/dL and the IP ([…], time 7 day) was 6.9 mg/dL. The K ([…], time 7 day) was 4.2 meq/L, the LDH ([…], time 7 day) was 92.4 IU/L and the Na ([…], time 7 day) was 144.2 meq/L. For the same compound, the PL ([…], time 7 day) was 159.8 mg/dL, the RALB ([…], time 7 day) was 2.6 g/dL and the TBIL ([…], time 7 day) was 0.04 mg/dL. The TC ([…], time 7 day) was 74.2 mg/dL, the TG ([…], time 7 day) was 138.2 mg/dL and the TP ([…], time 7 day) was 5.7 g/dL. For the same compound, the gamma-GTP ([…], time 7 day) was 1.2 IU/L, the A/G ([…], time 14 day) was 0.8 and the ALP ([…], time 14 day) was 1516.8 IU/L. For the same compound, the ALT ([…], time 14 day) was 46.8 IU/L, the AST ([…], time 14 day) was 73.2 IU/L and the BUN ([…], time 14 day) was 16.4 mg/dL. For the same compound, the CRE ([…], time 14 day) was 0.2 mg/dL, the Ca ([…], time 14 day) was 10.7 mg/dL and the Cl ([…], time 14 day) was 102.6 meq/L. The DBIL ([…], time 14 day) was 0.004 mg/dL, the GLC ([…], time 14 day) was 180.6 mg/dL and the IP ([…], time 14 day) was 6.6 mg/dL. The K ([…], time 14 day) was 4.2 meq/L, the LDH ([…], time 14 day) was 116.4 IU/L and the Na ([…], time 14 day) was 144.2 meq/L. For the same compound, the PL ([…], time 14 day) was 154.4 mg/dL, the RALB ([…], time 14 day) was 2.7 g/dL and the TBIL ([…], time 14 day) was 0.032 mg/dL. It also gave a TC ([…], time 14 day) of 73.2 mg/dL, a TG ([…], time 14 day) of 138.8 mg/dL and a TP ([…], time 14 day) of 6.2 g/dL. For the same compound, the gamma-GTP ([…], time 14 day) was 1 IU/L, the A/G ([…], time 28 day) was 0.8 and the ALP ([…], time 28 day) was 1150.5 IU/L. For the same compound, the ALT ([…], time 28 day) was 37.8 IU/L, the AST ([…], time 28 day) was 77.5 IU/L and the BUN ([…], time 28 day) was 16 mg/dL. It also gave a CRE ([…], time 28 day) of 0.3 mg/dL, a Ca ([…], time 28 day) of 10.4 mg/dL and a Cl ([…], time 28 day) of 101.8 meq/L. It also gave a DBIL ([…], time 28 day) of 0.005 mg/dL, a GLC ([…], time 28 day) of 170.8 mg/dL and an IP ([…], time 28 day) of 5.5 mg/dL. The K ([…], time 28 day) was 4.1 meq/L, the LDH ([…], time 28 day) was 77.2 IU/L and the Na ([…], time 28 day) was 143 meq/L. For the same compound, the PL ([…], time 28 day) was 161 mg/dL, the RALB ([…], time 28 day) was 2.7 g/dL and the TBIL ([…], time 28 day) was 0.0325 mg/dL. For the same compound, the TC ([…], time 28 day) was 76.8 mg/dL, the TG ([…], time 28 day) was 146.8 mg/dL and the TP ([…], time 28 day) was 6.2 g/dL. For the same compound, the gamma-GTP ([…], time 28 day) was 1.2 IU/L.
